Test results from US20220096516A1, “OLIGONUCLEOTIDE MOLECULE AND APPLICATION THEREOF IN TUMOR THERAPY” (Ractigen Therapeutics, priority 2019, published 2022).
d = 2'-deoxy (DNA); r = 2'-OH (RNA)

Assays:
U87MG transplanted tumor = U87MG transplanted tumor growth in nude mice; parameters: species or system BALB/c nude mice; settings: U87MG xenograft, day 13; saRNA (in vivo-jetPEI) 1 mg/kg intratumor days 1, 4, 7, 10; regorafenib 3 mg/kg intragastric daily day 1-12; control 406%
Method: To prepare the saRNA formulation, in vivo-jetPEI (201-10G, Polyplus-transfection, France) was adopted as an saRNA delivery system. The preparation process is briefly described as follows: an saRNA was first diluted in a 10% glucose solution to give a solution A; a required amount of in vivo-jetPEI was diluted in 10% glucose solution to give a solution B; then, equal volumes of the solution A and the solution B were mixed (nitrogen-to-phosphorus ratio: 8; final concentration of glucose: 5%). After mixing the mixture was let to stand under room temperature for 15 minutes for later use.
The glioma cell line U87MG were grown to the logarithmic phase, counted, then subcutaneously inoculated at a concentration of 9×10^7 cells/mL into the right armpit of BALB/c nude mice at 0.1 mL per mouse. […] After the initial administration, the long diameter and short diameter of each tumor were measured with a vernier caliper every two days. The tumor volume was calculated according to the formula V=(l×w^2)/2, wherein 1 represents the longest diameter of the tumor and w represents the diameter parallel to the surface of the tumor and perpendicular to the long diameter. A tumor growth curve and size and morphology of the tumor anatomy were recorded during the administration.

[1] = test system: bladder cancer cell line T24; experiment: Cell viability by CCK-8 method, T24; format: cell-based, human; settings: T24, 10 nM, 72 h, FIG. 7B
Method: (§1) 8 LHPP promoter-targeting saRNAs were individually transfected into cancer cells at 10 nM for 72 h. In FIG. 7A, the expression level of LHPP mRNA was analyzed by RT-qPCR. In FIG. 7B, cell viability in the saRNA treatment group was evaluated by the CCK-8 method and recorded as a percentage relative to the viability of cells in a control (Mock) treatment group.
(§2) The cell viability was detected by the following CCK-8 method: the cCells were plated into a 96-well plate at 3-5×10^3 cells/well, cultured overnight, and transfected with the oligonucleotide duplexes. After 72 hour of transfection, 10 uL of CCK-8 solution (Dojindo Molecular Technologies) was added into each well. After 1 hour of incubation at 37° C., a microplate reader was used to measure absorbances at 450 nm.
(§3) In order to further evaluate the effect of LHPP saRNAs in inducing the mRNA expression of the LHPP gene and inhibiting the proliferation of cancer cells, eight screened saRNAs (RAG7-132, RAG7-133, RAG7-139, RAG7-177, RAG7-178, RAG7-694, RAG7-707 and RAG7-892) each were transfected into the liver cancer cell lines Huh7 (Medical Cell Resource Center, Tohoku University, Japan), HepG2 (ATCC), Hep3B (ATCC), Li-7 (Medical Cell Resource Center, Tohoku University, Japan) and SK-HEP-1 (ATCC), a lung cancer cell line A549 (ATCC), a bladder cancer cell line T24 (ATCC), a prostatic cancer cell line PC3 (ATCC), and a glioma cell line U87MG (ATCC). The mRNA expression and cell viability of the transfected cells were measured.

glioma cell line U87MG = experiment: Cell viability by CCK-8 method, U87MG; format: cell-based, human; settings: 10 nM, 72 h, FIG. 7B
Method: as §1, §2, §3

Li-7 cells = experiment: Cell viability by CCK-8 method, Li-7; format: cell-based, human; settings: Li-7, 10 nM, 72 h, FIG. 6B
Method: as §1, with “into liver” for “into”, “6A,” for “7A,”, “6B,” for “7B,”
as §2, with “nm. […]” for “nm.”

LHPP gene = experiment: LHPP mRNA expression by RT-qPCR in cancer cell lines; format: cell-based, human; settings: 72 h
Method: as §1, with “into liver” for “into”, “6A,” for “7A,”, “6B,” for “7B,”
as §1, §3

[2] = test system: prostatic cancer cell line PC3; experiment: Cell viability by CCK-8 method, PC3; format: cell-based, human; settings: PC3, 10 nM, 72 h, FIG. 7B
Method: as §1, §2, §3

HepG2 transplanted tumor = HepG2 transplanted tumor growth in nude mice; parameters: species or system BALB/c nude mice; settings: HepG2 xenograft, day 13; saRNA (in vivo-jetPEI) 1 mg/kg intratumor days 1, 4, 7, 10; regorafenib 3 mg/kg intragastric daily day 1-12; vehicle 118%
Method: To prepare the saRNA formulation, the in vivo-jetPEI (201-10G, Polyplus-transfection, France) was adopted as an saRNA delivery system. The preparation process is briefly described as follows. An saRNA was first diluted in 10% glucose solution to obtain a solution A. According to the instructions of the manufacturer, a required amount of in vivo-jetPEI was diluted in 10% glucose solution to obtain a solution B. Equal volumes of the solution A and the solution B were mixed (nitrogen-to-phosphorus ratio: 8; final concentration of glucose: 5%). After mixing, the mixture was let to stand at room temperature for 15 minutes for later use.
HepG2 cells in the logarithmic growth phase were obtained and counted, and then the cell suspension was regulated to 5×10^7 cells/mL and subcutaneously inoculated into the right armpit of BALB/c nude mice at a volume of 0.1 mL per mouse. […] Starting from the initial administration, the long diameter and the short diameter of each tumor were measured with a vernier caliper every two days. The tumor volume was calculated according to the formula V=(l×w^2)/2, wherein 1 represents the longest diameter of the tumor and w represents the diameter parallel to the surface of the tumor and perpendicular to the long diameter. A tumor growth curve and size and morphology of the tumor after anatomy were recorded during the administration.

## RAG7-133: saRNA duplex; sense GCUCUUUGUCCGCUGAUCUTT (SEQ ID NO: 1), antisense AGAUCAGCGGACAAAGAGCTT (SEQ ID NO: 165) (sugars from the 5' end r19 d2, backbone not given here)
U87MG transplanted tumor
  tumor volume increase compared with that at the beginning of treatment: 167%
[1]
  cell proliferation (cell viability, CCK-8): inhibited cell proliferation
Glioma cell line U87MG
  cell proliferation (cell viability, CCK-8): inhibited cell proliferation
Li-7 cells
  cell proliferation (cell viability, CCK-8): inhibited cell proliferation
LHPP gene; Hep3B, 10 nM, FIG. 6A
  expression of LHPP gene (mRNA): induced the expression of LHPP gene to different degrees
LHPP gene; HepG2, 10 nM, FIG. 6A
  expression of LHPP gene (mRNA): induced the expression of LHPP gene to different degrees
LHPP gene; Huh7, 10 nM, FIG. 6A
  expression of LHPP gene (mRNA): induced the expression of LHPP gene to different degrees
LHPP gene; Li-7, 10 nM, FIG. 6A
  expression of LHPP gene (mRNA): induced the expression of LHPP gene to different degrees
LHPP gene; PC3, 10 nM, FIG. 7A
  expression of LHPP gene (mRNA): induced the expression of LHPP gene to different degrees
LHPP gene; SK-HEP-1, 10 nM, FIG. 6A
  expression of LHPP gene (mRNA): induced the expression of LHPP gene to different degrees
LHPP gene; T24, 10 nM, FIG. 7A
  expression of LHPP gene (mRNA): induced the expression of LHPP gene to different degrees
LHPP gene; U87MG, 10 nM, FIG. 7A
  expression of LHPP gene (mRNA): induced the expression of LHPP gene to different degrees
[2]
  cell proliferation (cell viability, CCK-8): inhibited cell proliferation
HepG2 transplanted tumor
  tumor volume increase compared with that at the beginning of treatment: 34%
